From patent publication US20220280661A1, “GLUCOCORTICOID RECEPTOR RADIOLIGANDS AND METHODS FOR THEIR PREPARATION AND USE” (The Regents of the University of California, priority 2019, published 2022)
Where “and” joins values, the source holds several entries; their conditions need not be identical. Equal entries are not always repeated. Where two headings read alike, the source gives them in different places. Values belong to the compound of their own block, whether it stands above or below them.

Assays:
[1] = Plasma protein binding, rapid equilibrium dialysis, human plasma; format: in vitro ADME; conditions: human, plasma, pH 7.4, human plasma
Description: (§1) Plasma Protein Binding Studies. The rapid equilibrium dialysis (RED) device inserts along with a Teflon base plate (Pierce, Rockford, Ill.) were used for the binding studies. The pH of the human or mouse plasma was adjusted to 7.4 prior to the experiment. DMSO stocks (1 mM) were spiked into the plasma to make a final concentration of 2 μM. The spiked plasma solutions (300 μL) were placed into the sample chamber (indicated by the red ring); and 500 μL of PBS buffer, pH 7.4, was placed into the adjacent chamber. The plate was incubated at 37° C. on an orbital shaker (250 rpm) for 4 hours.
(§2) After 4 hours, from the RED plate, aliquots (100 μL) were removed from each side of the insert (plasma and buffer) and dispensed into the 96-well plate. Subsequently, 100 μL of blank plasma was added to the buffer samples and 100 μL of blank buffer was added to all the collected plasma samples. 300 μL of quench solution (50% acetonitrile, 50% methanol, and 0.05% formic acid, warmed up at 37° C.) containing internal standards was added to each well. Plates were sealed, vortexed, and centrifuged at 4° C. for 15 minutes at 4000 rpm. The supernatant was transferred to fresh plates for LC/MS/MS analysis. The sample were analyzed on LC/MS/MS using an AB Sciex API 4000 instrument, coupled to a Shimadzu LC-20AD LC Pump system. Analytical samples were separated using a Waters Atlantis T3 dC18 reverse phase HPLC column (20 mm×2.1 mm) at a flow rate of 0.5 mL/min. The mobile phase consisted of 0.1% formic acid in water (solvent A) and 0.1% formic acid in acetonitrile (solvent B).
(§3) The percentage of test compound bound to protein was calculated by the following equations:
(§4) % Free=(Concentration in buffer chamber/Concentration in plasma chamber)×100%

plasma protein = test: as above; format: in vitro ADME; conditions: plasma (rapid equilibrium dialysis device), pH 7.4, human plasma
Description: as §1, §2, §3, §4

[2] = from 90 min dynamic PET in C57B16/J mice
Source text: Normal Tissue Radiation Dose Estimation. Volumes of interest (VOIs) were drawn on coregistered CT images for brain, lungs, heart, liver, stomach, kidneys, and urinary bladder. All VOIs were either elliptical cylinder (5 mm long axis, 3 mm short axis, and 5 mm height for the brain), cylinders (3 mm diameter and 3 mm height for kidneys), or spheres (3 mm diameter for lungs, heart, liver, stomach, and urinary bladder), and they were placed well within the anatomical boundaries to minimize spill-over or spill-in of radioactivity. The mean values (in Bq/ml) in these VOIs were multiplied by standard mouse organ volumes (in ml) to estimate total activity (in Bq) within these organs. The total activity within the entire animal subtracted by all organ activities was used as activity in the remainder of the body. The percent of injected activity within the defined organs (% IA) was extrapolated to human-equivalent values using ratios of standard human organ weights to mouse organ weights.
These input % IA data for each organ and the remainder of the body were curve-fitted to derive time-integrated activity coefficients (also known as residence times) (in Bq-hr/Bq) and organ and whole-body effective doses for human equivalents were estimated using each mouse data. The data from the three animals were averaged to derive absorbed organs doses (in mGy/MBq) and whole-body effective dose (in mSv/MBq). Organ and effective dose estimations were performed using OLINDA version 2.0 using ICRP Publication 103 tissue weighting factors.
To explore the potential of (±)-^11C-YJH08 for human translation, a rodent dosimetry study was conducted in male and female C57B16/J mice ([…]). The human equivalent doses for an average adult male (73 kg) or an average adult female (60 kg) were calculated using OLINDA 2.0 incorporating ICRP103 tissue weighting factors based on region of interest analysis from 90 min dynamic PET acquisitions (Table 11). […] The values were calculated from a 90 min dynamic PET acquisition in intact male or female C57B16/J mice.

fraction unbound at 4 h, 2 μM ([1]; duplicate, read-out: % Bound (converted)): < 0.0001
fraction unbound at 4 h, 2 μM ([1]; read-out: % Bound Average (converted)): < 0.0001
recovery at 4 h, 2 μM (plasma protein): 97.6%
SMILES: COc1cccc2c1-c1ccc3c(c1C(Cc1ccc(F)cc1)O2)C(C)=CC(C)(C)N3 (racemic) [YJH08, 5-(4-fluorobenzyl)-10-methoxy-2,2,4-trimethyl-2,5-dihydro-1H-chromeno[3,4-f]quinoline]

SMILES: CC1=CC(C)(C)Nc2ccc3c(c21)C(Cc1ccc(F)cc1)Oc1cccc(O[11CH3])c1-3 (racemic) [(±)-^11C-YJH08]
Effective Dose (whole-body) ([2]; Adult female (60 kg)): 0.0065±0.004 mSv/MBq and 0.00649 ± 0.000433 mSv/MBq
human equivalent absorbed dose, Adrenals ([2]; Adult female (60 kg)): 0.00578 ± 0.000156 mGy/MBq
human equivalent absorbed dose, Brain ([2]; Adult female (60 kg)): 0.00229 ± 0.000078 mGy/MBq
human equivalent absorbed dose, Breasts ([2]; Adult female (60 kg)): 0.00286 ± 0.000129 mGy/MBq
human equivalent absorbed dose, Esophagus ([2]; Adult female (60 kg)): 0.00544 ± 0.000439 mGy/MBq
human equivalent absorbed dose, Eyes ([2]; Adult female (60 kg)): 0.00223 ± 0.000061 mGy/MBq
human equivalent absorbed dose, Gallbladder Wall ([2]; Adult female (60 kg)): 0.00459 ± 0.000041 mGy/MBq
human equivalent absorbed dose, Heart Wall ([2]; Adult female (60 kg)): 0.0257 ± 0.005677 mGy/MBq
human equivalent absorbed dose, Kidneys ([2]; Adult female (60 kg)): 0.00785 ± 0.001344 mGy/MBq
human equivalent absorbed dose, Left colon ([2]; Adult female (60 kg)): 0.00437 ± 0.000314 mGy/MBq
human equivalent absorbed dose, Liver ([2]; Adult female (60 kg)): 0.01863 ± 0.001258 mGy/MBq
human equivalent absorbed dose, Lungs ([2]; Adult female (60 kg)): 0.00909 ± 0.000339 mGy/MBq
human equivalent absorbed dose, Osteogenic Cells ([2]; Adult female (60 kg)): 0.00217 ± 0.000069 mGy/MBq
human equivalent absorbed dose, Ovaries ([2]; Adult female (60 kg)): 0.00288 ± 0.000090 mGy/MBq
human equivalent absorbed dose, Pancreas ([2]; Adult female (60 kg)): 0.00545 ± 0.000182 mGy/MBq
human equivalent absorbed dose, Rectum ([2]; Adult female (60 kg)): 0.0028 ± 0.000087 mGy/MBq
human equivalent absorbed dose, Red Marrow ([2]; Adult female (60 kg)): 0.00289 ± 0.000101 mGy/MBq
human equivalent absorbed dose, Right colon ([2]; Adult female (60 kg)): 0.00339 ± 0.000070 mGy/MBq
human equivalent absorbed dose, Salivary Glands ([2]; Adult female (60 kg)): 0.00241 ± 0.000068 mGy/MBq
human equivalent absorbed dose, Small Intestine ([2]; Adult female (60 kg)): 0.00325 ± 0.000114 mGy/MBq
human equivalent absorbed dose, Spleen ([2]; Adult female (60 kg)): 0.00432 ± 0.0003 mGy/MBq
human equivalent absorbed dose, Stomach Wall ([2]; Adult female (60 kg)): 0.01925 ± 0.002944 mGy/MBq
human equivalent absorbed dose, Thymus ([2]; Adult female (60 kg)): 0.00498 ± 0.000454 mGy/MBq
human equivalent absorbed dose, Thyroid ([2]; Adult female (60 kg)): 0.00297 ± 0.000118 mGy/MBq
human equivalent absorbed dose, Total Body ([2]; Adult female (60 kg)): 0.00366 ± 0.000121 mGy/MBq
human equivalent absorbed dose, Urinary Bladder Wall ([2]; Adult female (60 kg)): 0.00288 ± 0.000114 mGy/MBq
human equivalent absorbed dose, Uterus ([2]; Adult female (60 kg)): 0.00284 ± 0.000085 mGy/MBq
Effective Dose (whole-body) ([2]; Adult male (73 kg)): 0.0067±0.002 mSv/MBq and 0.00673 ± 0.002757 mSv/MBq
human equivalent absorbed dose, Adrenals ([2]; Adult male (73 kg)): 0.00533 ± 0.000748 mGy/MBq
human equivalent absorbed dose, Brain ([2]; Adult male (73 kg)): 0.0014 ± 0.000022 mGy/MBq
human equivalent absorbed dose, Esophagus ([2]; Adult male (73 kg)): 0.00831 ± 0.004249 mGy/MBq
human equivalent absorbed dose, Eyes ([2]; Adult male (73 kg)): 0.00194 ± 0.000092 mGy/MBq
human equivalent absorbed dose, Gallbladder Wall ([2]; Adult male (73 kg)): 0.00602 ± 0.000876 mGy/MBq
human equivalent absorbed dose, Heart Wall ([2]; Adult male (73 kg)): 0.06753 ± 0.05072 mGy/MBq
human equivalent absorbed dose, Kidneys ([2]; Adult male (73 kg)): 0.00714 ± 0.000174 mGy/MBq
human equivalent absorbed dose, Left colon ([2]; Adult male (73 kg)): 0.00374 ± 0.000769 mGy/MBq
human equivalent absorbed dose, Liver ([2]; Adult male (73 kg)): 0.01568 ± 0.001377 mGy/MBq
human equivalent absorbed dose, Lungs ([2]; Adult male (73 kg)): 0.0135 ± 0.01113 mGy/MBq
human equivalent absorbed dose, Osteogenic Cells ([2]; Adult male (73 kg)): 0.00223 ± 0.000391 mGy/MBq
human equivalent absorbed dose, Pancreas ([2]; Adult male (73 kg)): 0.00665 ± 0.002374 mGy/MBq
human equivalent absorbed dose, Prostate ([2]; Adult male (73 kg)): 0.0025 ± 0.000105 mGy/MBq
human equivalent absorbed dose, Rectum ([2]; Adult male (73 kg)): 0.00249 ± 0.000093 mGy/MBq
human equivalent absorbed dose, Red Marrow ([2]; Adult male (73 kg)): 0.0031 ± 0.000771 mGy/MBq
human equivalent absorbed dose, Right colon ([2]; Adult male (73 kg)): 0.00367 ± 0.000548 mGy/MBq
human equivalent absorbed dose, Salivary Glands ([2]; Adult male (73 kg)): 0.00226 ± 0.000156 mGy/MBq
human equivalent absorbed dose, Small Intestine ([2]; Adult male (73 kg)): 0.00325 ± 0.000446 mGy/MBq
human equivalent absorbed dose, Spleen ([2]; Adult male (73 kg)): 0.00378 ± 0.000828 mGy/MBq
human equivalent absorbed dose, Stomach Wall ([2]; Adult male (73 kg)): 0.01628 ± 0.005962 mGy/MBq
human equivalent absorbed dose, Testes ([2]; Adult male (73 kg)): 0.00204 ± 0.000046 mGy/MBq
human equivalent absorbed dose, Thymus ([2]; Adult male (73 kg)): 0.01004 ± 0.005999 mGy/MBq
human equivalent absorbed dose, Thyroid ([2]; Adult male (73 kg)): 0.00355 ± 0.00107 mGy/MBq
human equivalent absorbed dose, Total Body ([2]; Adult male (73 kg)): 0.00355 ± 0.000856 mGy/MBq
human equivalent absorbed dose, Urinary Bladder Wall ([2]; Adult male (73 kg)): 0.00247 ± 0.000136 mGy/MBq
